Experimental findings from patent publication US20140309295A1, “ANTIEPILEPTIC, HYPOCHOLESTEROLEMIC AND NEUROPROTECTIVE COMPOUND” (NEURON BIOPHARMA, S.A., priority 2009, published 2014) are described below.

The subject of one series is zebrafish embryo. Description: Biosafety in zebrafish embryo (OECD C15, semi-static, 9 days). The format is in vivo, Danio rerio. As to the method:
The fertilized eggs were obtained by natural mating of the zebrafish (Danio rerio, AB strain). A total of 8-10 pairs were used for each cross and a total of 200-250 eggs were generated on average per pair.
To assure exposure in the earliest stages of development, the eggs were quickly transferred (a minimum of 50 per condition) to another Petri dish with solutions of the compounds to be tested. […] Each experiment was performed in triplicate.
The studies were conducted in a total of 9 days post-fertilization, in which the treatment was renewed every day, thus conducting a semi-static assay.
The results at the end of the experiment allowed collecting the percentage of healthy larvae which reach the end of the experiment, defined as the number of live larvae and without symptoms of external physiopathological anomalies (morphological and/or behavioral), this being a parameter determining the biosafety of a substance under study and is complementary to the survival rates and to the LD50.
The anomalies recorded in the study are described below: • Intracranial thrombosis: a clot inside the blood vessel, in this case of any cerebral vessel. • Cardiac thrombosis: occurs in a cardiac vessel. • Cardiac edema (or hydrops): accumulation of fluid in the intercellular tissue space and also in the cavities of the organism. In the case of the heart, it causes the accumulation of fluid in the pericardial sac. • Malformation: a noticeable difference in the shape of the body or part of the body, or organ of the body (internal or external) compared with the average shape of the part in question.
The cardiac rhythm of the zebrafish embryos-larva was determined by means of visual analysis in stereomicroscopy, determining the heartbeat with the aid of a manual counter for a period of one minute.

Series [1] concerns CD1 mice inoculated with MPTP (acute). Description: Acute MPTP model of Parkinson's disease in mice. It is filed as in vivo. Here is the method:
All the animals included for the experimental process were 12-week old males of the CD1 strain. The experiments were conducted strictly following the Guidance on the Operation of Animals (Scientific Procedures, Act. 1986). The animals had their respective quarantine period and were treated with maximum precaution to minimize possible contaminations during inoculations and handling.
Forty animals were used in this assay and the treatments were conducted with a volume of 100 μl, according to the following regimens: • i) PBS+PBS+PBS regimen: 10 animals were initially treated with PBS with a daily dose for 2 days by subcutaneous (s.c.) route, on the second day the animals were inoculated with 4 doses of PBS, at intervals of 2 hours by intraperitoneal (i.p.) route. For the next 7 days they were administered a daily dose of PBS by s.c. route. • ii) PBS+MPTP+PBS regimen: 10 animals were initially treated with a daily dose for 2 days of PBS by s.c. route, on the second day the animals were inoculated with 4 doses of MPTP at 20 mg/Kg, at intervals of 2 hours by i.p. route. For the next 7 days they were administered a daily dose of PBS by s.c. route. • iii) NST0037+MPTP+NST0037 regimen: 10 animals were initially treated with a daily dose for 2 days of NST0037 at 50 mg/kg by s.c. route, on the second day the animals were inoculated with 4 doses of MPTP at 20 mg/Kg, at intervals of 2 hours by i.p. route. For the next 7 days they were administered a daily dose of NST0037 at 50 mg/kg by s.c. route.
Before starting the treatments and once the treatment time of 7 days ended, the animals were subjected to a locomotor resistance test referred to as the Rotarod test for 2 minutes, recording the time the animals resisted walking over a cylinder which increased its speed from 4 to 40 r.p.m.
Before starting the treatments and once the treatment time of 7 days ended, the animals were subjected to a strength test in the so-called Grip-strength test, recording the strength of gripping a bar in grams exerted by the animals with the front paws in triplicate.
Once the treatment time of 7 days ended, the animals were sacrificed and the brains were dissected. The brain samples were processed and included in paraffin. For the analysis of neurodegeneration in the substantia nigra and the striatum, fluorescent Fluoro Jade B (FJB) staining was performed in 5 μm thick sagittal sections.
Once the treatment time of 7 days ended, the animals were sacrificed and the brains were dissected. The brain samples were processed and included in paraffin. For the analysis of the presence of dopaminergic neurons in the substantia nigra and the striatum, the immunohistochemistry against the tyrosine-hydroxylase (TH) protein was performed in 5 μm thick sagittal sections.

For another series, the system named is ApoB100 mice. Description: Hypocholesterolemic effect, oral 28 days, endogenous hyperlipidemia model. The format is in vivo. Here is the method: All the animals included for the experimental process were 12-week old female mice. The experiments were conducted strictly following the Guidance on the Operation of Animals (Scientific Procedures, Act. 1986). The animals had their respective quarantine period and were treated with maximum precaution to minimize possible contaminations for inoculations and handling.
The control group received this same vehicle. Before starting the treatments and at 7, 21 and 28 days of starting them, retro-orbital blood extractions after fasting for 16 hours were carried out. The plasma was obtained from said blood, in which the total cholesterol (TC), free cholesterol (FC), cholesterol (EC), HDL-c, LDL-c, VLDL-c and apoB100 levels were evaluated by enzymatic and spectrophotometric techniques. In order to check if the effect at the lipid level involved an alteration of the oxidative stress, the redox state in the plasmas obtained was furthermore evaluated by means of the TEAC (Trolox Antioxidant Capacity Assay) technique. This technique determines the antioxidant capacity in vitro, giving an idea of the redox state of the sample analyzed by means of the absorbance capacity by electron transfer. The different components of the reaction, myoglobin, ABTS (2,2-azino-bis-(3-ethylbenzthiazoline-sulfonic acid), […] H2O2 were added to the plasmas diluted 1/10 in PBS (10 μL) in a 96-well plate. After 3 minutes of incubation, the absorbance was measured at 405 nm (with a reference of 600 nm).

The mark [2] stands for this setting: NST0037+MPTP+NST0037, 50 mg/kg s.c., 7 days.
Setting [3] is: NST0037+MPTP+NST0037 vs PBS+MPTP+PBS, 7 days.

Turning to `CCC(CC)C(=O)O[C@H]1C[C@@H](C)C=C2C=C[C@H](C)[C@H](CC[C@@H]3C[C@@H](O)CC(=O)O3)[C@H]21` [NST0037, (1S,2S,6R,8S,8aR)-1,2,6,7,8,8a-hexahydro-3,7-dimethyl-8-[2-[(2R,4R)-tetrahydro-4-hydroxy-6-oxo-2H-pyran-2-yl]ethyl]-1-naphthalenyl-2-ethyl-butyrate], the “percentage of larvae with malformations or anomalous appearance” value with zebrafish embryo (0.2 mg/L) is listed as “did not show significant toxicological effects”. The “percentage of healthy larvae at the end of the experiment” value with zebrafish embryo (0.06 and 0.2 mg/L, 9 days) is given as “more healthy larvae reaching the end of the experiment”. In addition, the LD50 result in the series with zebrafish embryo (first days post-treatment (up to day 2)) was “above the maximum dose evaluated”. Moreover, the “survival rate of embryos-larvae” value with zebrafish embryo (high dose (2 mg/L, FIG. 24)) is given as “caused the mortality of all the embryos of the assay”. Besides, in the series with zebrafish embryo (increasing doses up to 2 mg/L, 72 hours post-treatment), the “reduction of the cardiac rhythm vs controls” value is reported as “statistically significant only at the dose of 2 mg/L”. The “survival rate of embryos-larvae vs controls” value with zebrafish embryo (lower dose (FIG. 25: NST0037 0.2 mg/L)) was “did not cause a statistically significant reduction of the survival rate”. For the same molecule, in series [1] (setting [2]), the “motor resistance (Rotarod test)” value is listed as “prevents the motor deterioration of the animals” and the “strength (Grip-strength test)” value was “prevents the loss of strength induced by MPTP”. Also, in series [1] (NST0037+MPTP+NST0037, 50 mg/kg s.c., MPTP 4 x 20 mg/Kg i.p.), the “survival after acute administration of MPTP” value is “promotes the survival of the animals”. Also, in series [1] (setting [3]), the “dopaminergic neurons (tyrosine-hydroxylase) in substantia nigra and striatum” value is listed as “larger number of TH-positive cells in the substantia nigra as well as a higher labeling intensity in the striatum”; the “neurodegeneration (Fluoro Jade B) in substantia nigra and striatum” value is “number of cells in degeneration and positive for FJB significantly lower”. The “FC and EC levels” value in the series with ApoB100 mice (50 mg/kg oral, 7, 21 and 28 days) is “reduction of the FC and EC levels”. Further, in the series with ApoB100 mice (50 mg/kg oral, 28 days), the HDL entry is “reduction of VLDL and HDL”; the LDL entry is “smaller increase of LDL”; the VLDL result is “reduction of VLDL”; the “apolipoprotein B (apoB) levels” value is “visibly reduced”. Further, in the series with ApoB100 mice (50 mg/kg oral, 28 days), the “redox state of the plasmas (TEAC)” value is “decrease the redox state”. In addition, the “plasma total cholesterol levels” value with ApoB100 mice (50 mg/kg oral, 28 days, female apoB100 mice) is “significantly reducing the plasma total cholesterol levels”.
